Data as given in US20170311599A1, “Target for Anthelmintic Development, and Anthelmintics Utilizing the Same” (The University of Toledo, priority 2016, published 2017).
“Also recorded” adds a separate entry of the source. Like-named read-outs stand apart in the source and are kept apart here.

What was measured:
[1] = system: heartworm (Dirofilaria immitis) microfilaria; assay: Heartworm (HW) motility assay (microfilaria); assay type: in vivo; parameters: activity against heartworm: dose or concentration left out as unconfirmed; settings: for HW (n = 2 mean), minimum efficacious dose (MED): microfilaria, 72 hour incubation, >50% decrease in motility
Experimental: For the heartworm (HW) motility assay (microfilaria), compounds were dissolved in DMSO and half log dilutions were placed into individual wells. […] […] The data reported is minimum efficacious dose (MED), which is the lowest concentration where there was a >50% decrease in motility compared to the DMSO controls.

[2] = system: Haemonchus contortus exsheathed L3 larvae; assay: Gastrointestinal nematode (HC) motility assay (exsheathed L3); assay type: in vivo; settings: exsheathed L3, 96 hours, >50% decrease in motility
Experimental: For the gastrointestinal nematode (HC) motility assay ([…]3), compounds were dissolved in DMSO and half log dilutions were placed into individual wells. To each well was added approximately 100 Haemonchus contortus […]3 larvae in a buffered nutrient media containing glucose and antibiotic panel resulting in a final concentration curve ranging from 100 μM to 1 nM. […] The data reported is minimum efficacious dose (MED), which is the lowest concentration where there was a >50% decrease in motility compared to the DMSO controls.

[3] = system: 5-HT quint animals (C. elegans lacking all previously identified 5-HT receptors); assay: Paralysis assay, quintuple 5-HT receptor null C. elegans (5-HT quint); assay type: in vivo, Caenorhabditis elegans; settings: for effect on locomotion: 5-HT quint, 5-HT
[4] = molecular target: C. elegans 5-HT1-like receptor SER-4 (Caenorhabditis elegans, UniProt G5EGH0); assay: in vivo; assay type: in vivo; settings: for activity from observations of nematode locomotion: FIGS. 9A-9B; for effect on locomotion: SER-4 in cholinergic motor neurons
Chain of C. elegans 5-HT1-like receptor SER-4 (Caenorhabditis elegans, UniProt G5EGH0) (G5EGH0 entry or part of it): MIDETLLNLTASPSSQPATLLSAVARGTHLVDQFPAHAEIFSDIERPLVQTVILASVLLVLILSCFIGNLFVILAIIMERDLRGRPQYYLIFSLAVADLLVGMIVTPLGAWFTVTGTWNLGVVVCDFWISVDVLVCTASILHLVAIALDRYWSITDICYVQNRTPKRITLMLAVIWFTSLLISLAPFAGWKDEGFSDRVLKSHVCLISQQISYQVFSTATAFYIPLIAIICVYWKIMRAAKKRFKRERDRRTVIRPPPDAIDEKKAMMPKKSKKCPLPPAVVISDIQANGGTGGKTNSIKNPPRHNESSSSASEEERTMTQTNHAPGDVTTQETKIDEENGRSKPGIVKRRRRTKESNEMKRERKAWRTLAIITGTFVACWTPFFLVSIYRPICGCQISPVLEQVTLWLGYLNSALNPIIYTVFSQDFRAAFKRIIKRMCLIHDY

[5] = system: C. elegans 5-HT1-like receptor SER-4; assay: in vivo; assay type: in vivo, Caenorhabditis elegans; settings: paralysis screen, FIGS. 9A-9B
[6] = system: flea (Ctenocephalides felis); assay: Flea (FF) membrane feed assay (adult); assay type: in vivo; settings: adult fleas fed treated blood, 24 hours, lowest dose causing mortality ≧50%
Experimental: For the flea (FF) membrane feed assay (adult), compounds were dissolved in DMSO and aliquots were added to citrated bovine blood in membrane covered wells warmed to 37° C. Adult fleas were newly emerged (3-7 days) and unfed. Feeding wells containing approximately 10 adult fleas were placed onto the treated blood wells, and the fleas were allowed to feed on the treated blood for 24 hours. […] Each compound was tested at half-log intervals, and endpoint data was recorded as Minimum Effective Concentration (MEC) in μM. MEC is a subjective visual assessment of organism viability, and is the lowest dose to cause mortality ≧50%.

wild type C. elegans = assay: Paralysis assay on agar plates, wild type C. elegans; assay type: in vivo, Caenorhabditis elegans
[7] = molecular target: T1, Drosophila 5-HT1 orthologue (5HT1A) (Drosophila melanogaster, UniProt P28285); assay: Paralysis assay, 5-HT quint expressing Drosophila 5-HT1 orthologue in cholinergic motor neurons; assay type: in vivo
T1 sequence (P28285 1-834): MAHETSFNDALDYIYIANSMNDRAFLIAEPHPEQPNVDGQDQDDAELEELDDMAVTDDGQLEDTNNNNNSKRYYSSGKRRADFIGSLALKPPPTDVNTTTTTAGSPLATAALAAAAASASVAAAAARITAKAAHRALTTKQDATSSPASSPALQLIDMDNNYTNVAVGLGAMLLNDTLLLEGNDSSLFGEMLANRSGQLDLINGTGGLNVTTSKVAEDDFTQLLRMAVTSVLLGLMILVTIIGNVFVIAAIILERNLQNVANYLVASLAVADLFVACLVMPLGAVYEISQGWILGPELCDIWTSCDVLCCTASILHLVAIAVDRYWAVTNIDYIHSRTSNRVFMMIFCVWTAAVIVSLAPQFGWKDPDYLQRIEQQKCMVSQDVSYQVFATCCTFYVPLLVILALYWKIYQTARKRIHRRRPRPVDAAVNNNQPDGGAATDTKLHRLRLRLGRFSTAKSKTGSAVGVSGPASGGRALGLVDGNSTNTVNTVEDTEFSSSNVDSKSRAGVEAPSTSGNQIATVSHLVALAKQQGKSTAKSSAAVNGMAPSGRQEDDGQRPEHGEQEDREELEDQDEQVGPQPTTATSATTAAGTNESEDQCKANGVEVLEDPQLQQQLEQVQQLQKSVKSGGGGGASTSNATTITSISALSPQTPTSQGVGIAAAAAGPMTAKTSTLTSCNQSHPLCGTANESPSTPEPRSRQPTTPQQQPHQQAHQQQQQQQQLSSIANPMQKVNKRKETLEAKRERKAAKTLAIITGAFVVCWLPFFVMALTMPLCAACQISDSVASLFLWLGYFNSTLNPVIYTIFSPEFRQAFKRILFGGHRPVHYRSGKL

[8] = molecular target: H. contortus (Hco) MOD-1 orthologue (Haemonchus contortus, UniProt M9MR50); assay: in vivo
Chain of H. contortus (Hco) MOD-1 orthologue (M9MR50 entry or part of it): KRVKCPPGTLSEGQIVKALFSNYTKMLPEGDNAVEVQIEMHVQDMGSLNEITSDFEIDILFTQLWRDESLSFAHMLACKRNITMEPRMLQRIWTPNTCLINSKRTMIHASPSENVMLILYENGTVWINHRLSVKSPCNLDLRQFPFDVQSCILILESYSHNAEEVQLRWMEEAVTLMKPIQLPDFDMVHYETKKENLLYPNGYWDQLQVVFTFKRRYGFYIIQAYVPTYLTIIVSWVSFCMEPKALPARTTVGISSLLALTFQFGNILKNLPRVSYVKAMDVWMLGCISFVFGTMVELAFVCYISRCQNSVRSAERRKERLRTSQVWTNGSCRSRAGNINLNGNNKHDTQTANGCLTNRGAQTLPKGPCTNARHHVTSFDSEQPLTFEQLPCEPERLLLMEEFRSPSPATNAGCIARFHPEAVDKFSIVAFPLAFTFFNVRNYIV

bus-17 (e2800) mutants = assay: whole plant or invertebrate; assay type: in vivo; settings: Caenorhabditis elegans, 10 min, read-out: EC50 of 5-HT-dependent paralysis
[9] = molecular target: T2, human 5-HT1A receptor (HTR1A) (Homo sapiens, UniProt P08908); assay: Paralysis assay, 5-HT quint expressing human 5-HT1A receptor in cholinergic motor neurons; assay type: in vivo, Caenorhabditis elegans
T2 construct: GFP (C); clone ID: 9020250
T2 sequence (P08908 1-422): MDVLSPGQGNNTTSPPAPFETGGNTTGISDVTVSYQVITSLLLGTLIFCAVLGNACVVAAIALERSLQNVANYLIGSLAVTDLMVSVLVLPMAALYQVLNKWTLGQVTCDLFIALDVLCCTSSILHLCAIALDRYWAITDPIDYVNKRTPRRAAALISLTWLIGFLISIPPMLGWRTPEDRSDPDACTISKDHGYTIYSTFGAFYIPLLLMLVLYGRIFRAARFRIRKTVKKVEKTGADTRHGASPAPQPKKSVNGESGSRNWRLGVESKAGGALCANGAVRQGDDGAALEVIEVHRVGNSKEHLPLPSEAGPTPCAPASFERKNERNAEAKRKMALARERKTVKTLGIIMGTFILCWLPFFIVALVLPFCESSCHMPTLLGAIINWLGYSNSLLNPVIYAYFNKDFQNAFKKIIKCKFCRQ

[10] = system: Drosophila histamine-gated Cl- channel (HisCl1)
[11] = molecular target: C. elegans LGC-55 (TA-gated Cl- channel) (Caenorhabditis elegans, UniProt G5EEC1); assay: Paralysis assay, TA quad expressing C. elegans LGC-55
Chain of C. elegans LGC-55 (TA-gated Cl- channel) (G5EEC1 entry or part of it): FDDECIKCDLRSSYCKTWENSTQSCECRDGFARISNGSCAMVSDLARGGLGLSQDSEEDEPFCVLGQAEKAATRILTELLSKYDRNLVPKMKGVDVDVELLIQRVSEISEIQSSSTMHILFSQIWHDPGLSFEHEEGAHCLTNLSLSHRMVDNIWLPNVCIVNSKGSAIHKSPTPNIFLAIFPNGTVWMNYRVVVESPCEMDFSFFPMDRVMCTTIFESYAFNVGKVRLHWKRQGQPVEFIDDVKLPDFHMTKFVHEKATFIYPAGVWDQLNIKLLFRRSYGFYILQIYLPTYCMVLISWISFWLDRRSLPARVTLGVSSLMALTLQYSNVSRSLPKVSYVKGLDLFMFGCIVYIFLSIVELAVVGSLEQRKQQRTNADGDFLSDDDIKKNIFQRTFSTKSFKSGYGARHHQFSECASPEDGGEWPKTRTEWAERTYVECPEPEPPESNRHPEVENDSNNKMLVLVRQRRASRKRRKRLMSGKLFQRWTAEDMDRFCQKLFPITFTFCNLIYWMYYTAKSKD

[12] = molecular target: H. contortus (Hco) LGC-55 orthologue (Haemonchus contortus, UniProt D7F471); assay: in vivo
Chain of H. contortus (Hco) LGC-55 orthologue (D7F471 entry or part of it): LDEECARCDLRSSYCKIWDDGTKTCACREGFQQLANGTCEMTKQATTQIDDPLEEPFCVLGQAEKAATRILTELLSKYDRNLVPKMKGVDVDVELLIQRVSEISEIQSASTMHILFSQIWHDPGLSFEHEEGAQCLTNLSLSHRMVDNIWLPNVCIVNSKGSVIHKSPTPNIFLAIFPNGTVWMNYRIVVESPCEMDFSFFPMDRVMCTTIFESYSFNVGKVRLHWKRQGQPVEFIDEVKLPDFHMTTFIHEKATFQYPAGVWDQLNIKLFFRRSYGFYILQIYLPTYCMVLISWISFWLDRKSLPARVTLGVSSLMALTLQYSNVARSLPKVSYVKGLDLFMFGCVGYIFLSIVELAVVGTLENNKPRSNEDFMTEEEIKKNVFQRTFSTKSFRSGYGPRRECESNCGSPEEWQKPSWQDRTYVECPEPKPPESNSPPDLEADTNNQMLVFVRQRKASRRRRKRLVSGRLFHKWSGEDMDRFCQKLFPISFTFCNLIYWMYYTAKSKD

[13] = system: TA quad animals (lack all previously identified TA receptors); assay: Paralysis assay, quadruple TA receptor null C. elegans (TA quad); assay type: in vivo, Caenorhabditis elegans
[14] = exogenous 5-HT (1 mM), hypotonic

`O=C(/C=C/c1c[nH]c2ccc(O)cc12)c1ccncc1` [CD3-718, trans-3-(5-hydroxy-1H-indol-3-yl)-1-(4-pyridinyl)-2-propen-1-one] was tested, and the “activity against heartworm” value [1] was “inactive”, the “HW (n = 2 mean), minimum efficacious dose (MED)” value (“HW (n = 2 mean)” below) [1] was over 100 µg/mL and the “HC (n = 2 mean), minimum efficacious dose (MED)” value (shortened to “HC (n = 2 mean)”) [2] was over 100 µg/mL. The “paralysis” value ([3]; 5-HT quint animals, 15 minutes exposure) was “not in animals that do not express any previously identified 5-HT receptors”, the “paralysis” value ([4]; animals expressing the nematode 5-HT1 receptor (SER-4), 15 minutes exposure) was “causing paralysis” and the “selectivity for C. elegans 5-HT1 versus human 5-HT1” value [5] was “remarkable selectivity; also recorded: remarkably selective”. For the same compound, the “FF (n = 2 mean), Minimum Effective Concentration (MEC)” value (“FF (n = 2 mean)” for short) [6] was over 100 µg/mL and the “paralysis” value (wild type C. elegans; 15 minutes exposure) was “causing paralysis”.

In the case of `COc1ccc2[nH]c(CC(C)C)c(/C=C/C(=O)c3ccncc3)c2c1` [CD3-984], the “activity from observations of nematode locomotion” value (from here on “activity from observations”) [4] is reported as “at least moderate activity with favorable species selectivity”.

In the case of `Nc1ccc(CCN2CCN(c3cccc(C(F)(F)F)c3)CC2)cc1` [PAPP, p-amino-phenethyl-m-trifluoromethylphenyl piperazine], the EC50 ([3]; Caenorhabditis elegans, 0.25 h, read-out: EC50 of PAPP-dependent paralysis) is reported as 680 µM, the EC50 [4] is reported as 170 µM and the EC50 (wild type C. elegans; Caenorhabditis elegans, 0.25 h, 15 min exposure, hypotonic, read-out: EC50 of PAPP-dependent paralysis) is reported as 370 µM.

For `NCCc1c[nH]c2ccc(O)cc12` [5-HT, Serotonin], the “locomotion” value [7, 14] was “dramatically inhibited”, the “effect on locomotion” value ([3]; NGM agar plates) was “no effect on locomotion” and the “effect on locomotion” value ([3]; hypotonic non-NGM agar plates) was “no effect on locomotion”. The EC50 [8] was about 200 µM, the EC50 (bus-17 (e2800) mutants) was about 240 µM and the “locomotion” value [9, 14] was “dramatically inhibited”. The “paralysis” value ([4]; 5-HT quint expressing SER-4 in AIB interneurons (Pnpr-9), 5-HT (1 mM), hypotonic) was “rapidly paralyzed”, the “paralysis” value ([4]; 5-HT quint expressing SER-4 in cholinergic motor neurons (Punc-17β), 5-HT (1 mM), hypotonic) was “rapidly paralyzed” and the “paralysis” value ([4]; SER-4 quad (ser-5;mod-1;ser-7 ser-1 quadruple null), 15 mM 5-HT, NGM agar plates) was “rapid paralysis”. The paralysis (wild type C. elegans; 1 mM 5-HT, 10 min exposure, hypotonic non-NGM agar) was 50%, the “paralysis” value (wild type C. elegans; 15 mM 5-HT, NGM agar plates) was “rapid paralysis” and the EC50 (wild type C. elegans; Caenorhabditis elegans, 10 min, isotonic NGM agar plates, 10 min, read-out: EC50 of 5-HT-dependent paralysis) was 11500 µM. The EC50 (wild type C. elegans; Caenorhabditis elegans, hypotonic (agar alone without NGM, salt-free), read-out: EC50 of 5-HT-dependent paralysis) was about 400 µM, the EC50 (wild type C. elegans; hypotonic (agar alone without NGM, salt-free), read-out: EC50 of 5-HT-dependent paralysis) was about 500 µM and the EC50 (wild type C. elegans; isotonic NGM agar plates, 10 min, read-out: EC50 of 5-HT-dependent paralysis) was about 12000 µM.

With `CSCCC(NC(=O)C(Cc1ccc(O)cc1)NC(=O)Cc1c[nH]c2ccccc12)C(=O)NC(C)C(=O)O` [CD3-276, N-[(Indol-3)acetyl]-D-Tyrosyl-Methionyl-D-alanine] the “activity against heartworm” value [1] was “inactive”, the “HW (n = 2 mean)” value [1] was over 100 µg/mL and the “HC (n = 2 mean)” value [2] was over 100 µg/mL. The “FF (n = 2 mean)” value [6] was over 100 µg/mL.

With `CCCc1[nH]c2ccc(OC)cc2c1/C=C/C(=O)c1ccncc1` [CD3-980] the “activity from observations” value [4] was “at least moderate activity with favorable species selectivity”.

In the case of `CNS(=O)(=O)Cc1ccc2[nH]cc(CCN(C)C)c2c1` [sumatriptan, sumatriptan succinate], the “effect on locomotion” value ([7]; 0.5 mM sumatriptan) is reported as “no effect on locomotion”, the “effect on locomotion” value ([9]; 0.5 mM sumatriptan) is reported as “no effect on locomotion” and the “paralysis” value ([9]; sumatriptan at higher concentrations (1 mM)) is reported as “failed to fully paralyze”. For the same compound, the “effect on locomotion” value ([4]; 0.5 mM sumatriptan) was “no effect on locomotion” and the “effect on locomotion” value (wild type C. elegans; 0.5 mM sumatriptan, hypotonic) was “no effect on locomotion”.

`COc1ccc2[nH]c(C)c(/C=C/C(=O)c3ccncc3)c2c1` [CD3-719] was tested, and the “activity from observations” value [4] was “decreased activity”.

With `O=C(/C=C/c1c[nH]c2ccccc12)c1ccccc1` [CD3-664] the “activity against heartworm” value [1] was “active against heartworm”, the “HW (n = 2 mean)” value [1] was 100 µg/mL and the “HC (n = 2 mean)” value [2] was over 100 µg/mL. The “FF (n = 2 mean)” value [6] was over 100 µg/mL.

For `Cl.Cl.NCCc1c[nH]cn1` [histamine, histamine dihydrochloride], the “paralysis” value ([10]; 2 mM histamine, NGM plates) was “did not cause paralysis”, the “paralysis” value ([10]; 2 mM histamine, hypotonic assay conditions) was “caused significance paralysis” and the “paralysis” value ([10]; 10 mM histamine, NGM plates) was “caused significance paralysis”. For the same compound, the “paralysis” value (wild type C. elegans; 2 mM histamine, NGM plates) was “did not cause paralysis”.

With `NCCc1ccc(O)cc1` [TA, tyramine] the EC50 [11] was about 100 µM, the EC50 [12] was about 100 µM and the “effect on locomotion” value [13] was “no effect on locomotion”.

With `CCCN(CCC)C1CCc2cccc(O)c2C1` (stereo not shown) [8-OH-DPAT, 8-hydroxy-2-(di-n-propylamino) tetralin] the “effect on locomotion” value ([7]; 8-OH-DPAT at 2 mM, hypotonic) was “no effect on locomotion”, the “paralysis” value ([9]; 8-OH-DPAT (2 mM), hypotonic) was “rapidly paralyzed” and the “effect on locomotion” value ([4]; 8-OH-DPAT at 2 mM, hypotonic) was “no effect on locomotion”.
